{
  "source": "patent US7880021B2",
  "about": "“Compounds and kits for the detection and the quantification of cell apoptosis” (Centre National de la Recherche Scientifique (CNRS), priority 2005, dated 2011)",
  "assay": "Fluorescence properties of the probes (absorption maximum, band resolution)",
  "type": "physicochemical",
  "source_text": "The probe TCN12S is an analog of F2N12S and was synthesized to improve the fluorescence properties. Indeed, substitution of the 2-phenyl group with 2-thienyl shifts the absorption maximum from 420 nm to 445 nm, making this probe suitable for excitation with a He/Cd laser (442 nm). Moreover, the resolution between the two emission bands increases from 90 nm (F2N12S) to 120 nm (TCN12S), favoring two-color ratiometric detection.",
  "data": [
    {"substance": "1-dodecanaminium, N-[[2-[4-Diethylaminophenyl]-3-hydroxychromon-6-yl]-methyl]-N-methyl-N-(3-sulfopropyl)-, inner salt [F2N12S]", "values": [
      {"measurement": "absorption maximum", "result": 420, "unit": "nm"},
      {"measurement": "resolution between the two emission bands", "result": 90, "unit": "nm"}
    ]}
  ]
}
